From PubChem BioAssay (NCI)
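Step 1: Grow cells in 96-well plates. Step 2: Expose to compound for 48 hours at 5 concentrations. Step 3: Interpolate endpoints linearly; if unreached, use highest concentration. TGI: concentration producing complete growth inhibition.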

Columns and labels:
Test in all cases: DTP human tumour cell line panel, 48 h
[1] = system: MCF7 breast
[2] = system: A549 NSCLC
[3] = system: COLO 205 colon
[4] = system: OVCAR-8 ovarian
[5] = system: HOP-62 NSCLC
[6] = system: NCI-H460 lung
[7] = system: OVCAR-3 ovarian
[8] = system: SN12C renal
[9] = system: NCI-H23 lung
[10] = system: OVCAR-4 ovarian
[11] = system: HOP-92 NSCLC
[12] = system: SF-295 CNS
[13] = system: M14 melanoma
[14] = system: A498 renal
[15] = system: OVCAR-5 ovarian
[16] = system: K-562 leukemia
[17] = system: SK-MEL-5 melanoma
[18] = system: LOX IMVI melanoma
[19] = system: UACC-62 melanoma
[20] = system: HCT-15 colon
[21] = system: SK-MEL-28 melanoma
[22] = system: KM12 colon
[23] = system: SK-MEL-2 melanoma
[24] = system: SR leukemia
[25] = system: NCI-H226 lung
[26] = system: UACC-257 melanoma
[27] = system: T-47D breast
[28] = system: HCT-116 colon
[29] = system: HCC-2998 colon
[30] = system: UO-31 renal
[31] = system: MDA-N
[32] = system: HS 578T breast
[33] = system: BT-549 breast
[34] = system: SNB-19 CNS
[35] = system: HT29 colon
[36] = system: CAKI-1 renal
[37] = system: MOLT-4 leukemia
[38] = system: NCI-H522 lung
[39] = system: MDA-MB-435
[40] = system: SNB-75 CNS
[41] = system: NCI/ADR-RES ovarian
[42] = system: PC-3 prostate
[43] = system: MDA-MB-231 breast
[44] = system: SF-539 CNS
[45] = system: DU-145 prostate
[46] = system: SF-268 CNS
[47] = system: TK-10 renal
[48] = system: MALME-3M melanoma
[49] = system: RXF 393 renal
[50] = system: CCRF-CEM leukemia
[51] = system: EKVX NSCLC
[52] = system: ACHN renal
[53] = system: IGROV1 ovarian
[54] = system: 786-0 renal
[55] = system: HL-60(TB) leukemia
[56] = system: U251 CNS
[57] = system: SW-620 colon
[58] = system: SK-OV-3 ovarian
[59] = system: RPMI-8226 leukemia
[60] = system: DLD-1 colon
[61] = system: DMS 114 small cell lung
[62] = system: M19-MEL melanoma
[63] = system: SNB-78 CNS
[64] = system: KM20L2 colon
[65] = system: HOP-18 NSCLC
[66] = system: LXFL 529 NSCLC
[67] = system: XF 498 CNS
[68] = system: DMS 273 small cell lung
[69] = system: RXF-631 renal

Compound: COC(=O)C1(Cc2ccc3c(c2)CCC3)Cc2cc3c(cc2C1=O)CCC3 (stereo unspecified)
- TGI [1]: > 46.4 µM
- TGI [2]: > 46.4 µM
- TGI [3]: 29.2 µM
- TGI [4]: > 46.4 µM
- TGI [5]: > 46.4 µM
- TGI [6]: > 46.4 µM
- TGI [7]: > 46.4 µM
- TGI [8]: > 46.4 µM
- TGI [9]: > 46.4 µM
- TGI [10]: > 46.4 µM
- TGI [11]: 42.9 µM
- TGI [12]: > 46.4 µM
- TGI [13]: > 46.4 µM
- TGI [14]: > 31.6 µM
- TGI [15]: > 46.4 µM
- TGI [16]: > 46.4 µM
- TGI [17]: 32.3 µM
- TGI [18]: > 46.4 µM
- TGI [19]: > 46.4 µM
- TGI [20]: > 46.4 µM
- TGI [21]: > 46.4 µM
- TGI [22]: > 46.4 µM
- TGI [23]: > 31.6 µM
- TGI [24]: 33 µM
- TGI [25]: > 46.4 µM
- TGI [26]: > 46.4 µM
- TGI [27]: > 46.4 µM
- TGI [28]: > 46.4 µM
- TGI [29]: 38.1 µM
- TGI [30]: > 46.4 µM
- TGI [31]: > 46.4 µM
- TGI [32]: > 46.4 µM
- TGI [33]: 39.2 µM
- TGI [34]: > 46.4 µM
- TGI [35]: > 46.4 µM
- TGI [36]: > 31.6 µM
- TGI [37]: 38.7 µM
- TGI [38]: > 31.6 µM
- TGI [39]: 43 µM
- TGI [40]: > 46.4 µM
- TGI [41]: > 46.4 µM
- TGI [42]: > 46.4 µM
- TGI [43]: > 46.4 µM
- TGI [44]: > 46.4 µM
- TGI [45]: > 46.4 µM
- TGI [46]: > 46.4 µM
- TGI [47]: > 46.4 µM
- TGI [48]: > 46.4 µM
- TGI [49]: > 46.4 µM
- TGI [50]: > 46.4 µM
- TGI [51]: > 46.4 µM
- TGI [52]: > 46.4 µM
- TGI [53]: > 46.4 µM
- TGI [54]: > 46.4 µM
- TGI [55]: 17.9 µM
- TGI [56]: > 46.4 µM
- TGI [57]: > 46.4 µM
- TGI [58]: > 46.4 µM
- TGI [59]: 31.3 µM

Compound: O=C(Nc1cc([N+](=O)[O-])cc([N+](=O)[O-])c1)OC1C2CCC1C1OC1C2 (stereo unspecified)
- TGI [2]: > 50 µM
- TGI [3]: > 50 µM
- TGI [4]: > 50 µM
- TGI [5]: > 50 µM
- TGI [6]: > 50 µM
- TGI [7]: > 50 µM
- TGI [9]: > 50 µM
- TGI [10]: > 50 µM
- TGI [60]: > 50 µM
- TGI [11]: > 50 µM
- TGI [12]: > 50 µM
- TGI [13]: > 50 µM
- TGI [61]: > 50 µM
- TGI [14]: > 50 µM
- TGI [15]: > 50 µM
- TGI [16]: > 50 µM
- TGI [62]: > 50 µM
- TGI [17]: > 50 µM
- TGI [63]: > 50 µM
- TGI [19]: > 50 µM
- TGI [20]: > 50 µM
- TGI [21]: > 50 µM
- TGI [22]: > 50 µM
- TGI [23]: > 50 µM
- TGI [26]: > 50 µM
- TGI [28]: > 50 µM
- TGI [64]: > 50 µM
- TGI [29]: > 50 µM
- TGI [30]: > 50 µM
- TGI [34]: > 50 µM
- TGI [37]: > 50 µM
- TGI [38]: > 50 µM
- TGI [40]: > 50 µM
- TGI [44]: > 50 µM
- TGI [46]: > 50 µM
- TGI [47]: > 50 µM
- TGI [48]: > 50 µM
- TGI [49]: > 50 µM
- TGI [50]: > 50 µM
- TGI [51]: > 50 µM
- TGI [52]: > 50 µM
- TGI [53]: > 50 µM
- TGI [54]: > 50 µM
- TGI [55]: > 50 µM
- TGI [56]: > 50 µM
- TGI [57]: > 50 µM
- TGI [58]: > 50 µM
- TGI [59]: > 50 µM

Compound: O=C(Cc1ccccc1)NN1C(=O)C(Cl)C1c1ccccc1 (stereo unspecified)
- TGI [2]: > 100 µM
- TGI [3]: > 100 µM
- TGI [4]: > 100 µM
- TGI [5]: > 100 µM
- TGI [6]: > 100 µM
- TGI [7]: > 100 µM
- TGI [8]: > 100 µM
- TGI [9]: > 100 µM
- TGI [10]: > 100 µM
- TGI [60]: > 100 µM
- TGI [12]: > 100 µM
- TGI [13]: > 100 µM
- TGI [61]: > 100 µM
- TGI [15]: > 100 µM
- TGI [16]: > 100 µM
- TGI [62]: > 100 µM
- TGI [17]: > 100 µM
- TGI [63]: > 100 µM
- TGI [19]: > 100 µM
- TGI [20]: > 100 µM
- TGI [21]: > 100 µM
- TGI [22]: > 100 µM
- TGI [23]: > 100 µM
- TGI [24]: 55.3 µM
- TGI [25]: > 100 µM
- TGI [26]: > 100 µM
- TGI [28]: > 100 µM
- TGI [64]: > 100 µM
- TGI [29]: > 100 µM
- TGI [30]: > 100 µM
- TGI [34]: > 100 µM
- TGI [35]: > 100 µM
- TGI [36]: > 100 µM
- TGI [37]: 81.8 µM
- TGI [65]: > 100 µM
- TGI [38]: 3.93 µM
- TGI [40]: > 100 µM
- TGI [66]: 50.5 µM
- TGI [46]: > 100 µM
- TGI [47]: > 100 µM
- TGI [48]: > 100 µM
- TGI [49]: > 100 µM
- TGI [50]: 71.4 µM
- TGI [51]: > 100 µM
- TGI [52]: > 100 µM
- TGI [53]: > 100 µM
- TGI [54]: > 100 µM
- TGI [55]: > 100 µM
- TGI [56]: > 100 µM
- TGI [57]: > 100 µM
- TGI [58]: > 100 µM
- TGI [67]: 45.2 µM
- TGI [59]: 52.8 µM

Compound: C[C@@]1(CBr)C[C@@](C)(/C=C/Cl)[C@@H](Cl)C[C@H]1Cl
- TGI [2]: 26.1 µM
- TGI [3]: 28.1 µM
- TGI [4]: 29.9 µM
- TGI [5]: 27.5 µM
- TGI [7]: 22.8 µM
- TGI [8]: 24.4 µM
- TGI [9]: 27.9 µM
- TGI [10]: 24.6 µM
- TGI [60]: 27.3 µM
- TGI [11]: 27.7 µM
- TGI [12]: 26.8 µM
- TGI [13]: 29 µM
- TGI [61]: 25.3 µM
- TGI [14]: 30.8 µM
- TGI [15]: 26.3 µM
- TGI [16]: 25.3 µM
- TGI [62]: 25.9 µM
- TGI [17]: 26.1 µM
- TGI [68]: 22.8 µM
- TGI [63]: 14 µM
- TGI [18]: 23.7 µM
- TGI [19]: 29.1 µM
- TGI [21]: 31.3 µM
- TGI [22]: 22.5 µM
- TGI [23]: 8.46 µM
- TGI [24]: 16.9 µM
- TGI [25]: 26.1 µM
- TGI [26]: 24.2 µM
- TGI [28]: 21.2 µM
- TGI [64]: 24.6 µM
- TGI [29]: 29.8 µM
- TGI [30]: 29.1 µM
- TGI [69]: 24.2 µM
- TGI [34]: 27.1 µM
- TGI [35]: 22.4 µM
- TGI [36]: 31.7 µM
- TGI [37]: 19.4 µM
- TGI [65]: 26.4 µM
- TGI [38]: 14.5 µM
- TGI [40]: 30.5 µM
- TGI [44]: 27.9 µM
- TGI [66]: 21.7 µM
- TGI [46]: 30.1 µM
- TGI [47]: 28.7 µM
- TGI [48]: 30.4 µM
- TGI [49]: 27.9 µM
- TGI [50]: 19.8 µM
- TGI [51]: 33 µM
- TGI [52]: 25.7 µM
- TGI [53]: 29 µM
- TGI [54]: 27 µM
- TGI [55]: 8.6 µM
- TGI [56]: 27.9 µM
- TGI [57]: 27.8 µM
- TGI [58]: 29.9 µM
- TGI [67]: 24.5 µM
